Results published in ChEMBL document CHEMBL1201862, “PubChem BioAssay data set” (2004).
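Cultured in 96-well plates, cells were exposed to test compound for 48 hours across five concentrations. Abbreviation: GI50, concentration required for 50% inhibition of growth.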 The source made the active and inactive calls. Cut-off read from the data, not from the text of the source: active = GI50 up to about 1.1 µM and inactive = higher.

Key:
Test in all cases: growth of human tumour cells (NCI), 48 h
T47D = tested on: T47D
Hs-578T = tested on: Hs-578T
UACC-257 = tested on: UACC-257
M14 = tested on: M14
MDA-MB-231 = tested on: MDA-MB-231
IGROV-1 = tested on: IGROV-1
UO-31 = tested on: UO-31
NCI-H226 = tested on: NCI-H226
MDA-MB-435 = tested on: MDA-MB-435
SK-MEL-5 = tested on: SK-MEL-5
CAKI-1 = tested on: CAKI-1
A549 = tested on: A549
SN12C = tested on: SN12C
SR = tested on: SR
BT-549 = tested on: BT-549
KM12 = tested on: KM12
UACC-62 = tested on: UACC-62
DU-145 = tested on: DU-145
NCI/ADR-RES = tested on: NCI/ADR-RES
HL-60 = tested on: HL-60

Compound	GI50 (T47D)	GI50 (Hs-578T)	GI50 (UACC-257)	GI50 (M14)	GI50 (MDA-MB-231)	GI50 (IGROV-1)	GI50 (UO-31)	GI50 (NCI-H226)	GI50 (MDA-MB-435)	GI50 (SK-MEL-5)	GI50 (CAKI-1)	GI50 (A549)	GI50 (SN12C)	GI50 (SR)	GI50 (BT-549)	GI50 (KM12)	GI50 (UACC-62)	GI50 (DU-145)	GI50 (NCI/ADR-RES)	GI50 (HL-60)
Cc1nn(C(=O)c2ccccc2O)c2c1C(c1ccc3ccccc3c1O)SC(=N)N2 (configuration not stated)	1.87 µM (inactive)	1.7 µM (inactive)	3.53 µM (inactive)	6.21 µM (inactive)	3.05 µM (inactive)	3.61 µM (inactive)	4.2 µM (inactive)	2.65 µM (inactive)	5.93 µM (inactive)	1.63 µM (inactive)	3.52 µM (inactive)	4.91 µM (inactive)	6.58 µM (inactive)	4.53 µM (inactive)	> 10 µM (inactive)	7.46 µM (inactive)	1.77 µM (inactive)	–	–	–
CC(=O)Nc1ccc(NNc2cc(=O)n(C)c(=O)[nH]2)cc1	–	25.6 µM (inactive)	13.5 µM (inactive)	8.89 µM (inactive)	12.1 µM (inactive)	14 µM (inactive)	17.2 µM (inactive)	22.4 µM (inactive)	10.3 µM (inactive)	16.7 µM (inactive)	–	19 µM (inactive)	10.1 µM (inactive)	3.47 µM (inactive)	13.1 µM (inactive)	12 µM (inactive)	–	16 µM (inactive)	16.7 µM (inactive)	2.95 µM (inactive)
CCN(CC)c1ccc2cc(-c3csc(C)n3)c(=O)oc2c1	2.14 µM (inactive)	25.7 µM (inactive)	77.8 µM (inactive)	> 100 µM (inactive)	71.8 µM (inactive)	45.3 µM (inactive)	> 100 µM (inactive)	57.4 µM (inactive)	42.9 µM (inactive)	37.9 µM (inactive)	> 100 µM (inactive)	> 100 µM (inactive)	> 100 µM (inactive)	62.2 µM (inactive)	28.2 µM (inactive)	13.5 µM (inactive)	52.8 µM (inactive)	> 100 µM (inactive)	–	95.3 µM (inactive)
[N-]=[N+]=NC1OC(=O)C(Cl)=C1N=P(c1ccccc1)(c1ccccc1)c1ccccc1 (configuration not stated)	> 10 µM (inactive)	> 10 µM (inactive)	> 10 µM (inactive)	6.98 µM (inactive)	6.44 µM (inactive)	> 10 µM (inactive)	> 10 µM (inactive)	> 10 µM (inactive)	8.17 µM (inactive)	> 10 µM (inactive)	> 10 µM (inactive)	> 10 µM (inactive)	> 10 µM (inactive)	–	> 10 µM (inactive)	7.85 µM (inactive)	> 10 µM (inactive)	> 10 µM (inactive)	5.51 µM (inactive)	3.77 µM (inactive)
c1ccc(C2(c3cc4ccccc4[nH]3)OCCO2)nc1	> 100 µM (inactive)	> 100 µM (inactive)	> 100 µM (inactive)	> 100 µM (inactive)	> 100 µM (inactive)	> 100 µM (inactive)	> 100 µM (inactive)	> 100 µM (inactive)	> 100 µM (inactive)	> 100 µM (inactive)	> 100 µM (inactive)	> 100 µM (inactive)	–	–	> 100 µM (inactive)	> 100 µM (inactive)	> 100 µM (inactive)	> 100 µM (inactive)	> 100 µM (inactive)	> 100 µM (inactive)
COc1cc2cc(C(=O)N3CC(COS(C)(=O)=O)c4c3cc([N+](=O)[O-])c3ccccc43)[nH]c2c(OC)c1OC (configuration not stated)	> 31.6 µM (inactive)	> 31.6 µM (inactive)	> 31.6 µM (inactive)	19 µM (inactive)	60.4 µM (inactive)	23.5 µM (inactive)	2.56 µM (inactive)	> 100 µM (inactive)	> 31.6 µM (inactive)	> 10 µM (inactive)	0.398 µM (active)	2.81 µM (inactive)	5.83 µM (inactive)	–	> 31.6 µM (inactive)	30.1 µM (inactive)	2.74 µM (inactive)	0.553 µM (active)	0.698 µM (active)	0.794 µM (active)
Cc1cccnc1N/C=C1\C(=O)NC(=O)N(C)C1=O	55.7 µM (inactive)	> 100 µM (inactive)	> 100 µM (inactive)	> 100 µM (inactive)	–	64.1 µM (inactive)	> 100 µM (inactive)	> 100 µM (inactive)	> 100 µM (inactive)	> 100 µM (inactive)	> 100 µM (inactive)	> 100 µM (inactive)	> 100 µM (inactive)	–	> 100 µM (inactive)	> 100 µM (inactive)	> 100 µM (inactive)	> 100 µM (inactive)	–	> 100 µM (inactive)
COc1cc(C=O)cc(/C=N/n2c3ccccc3c3ccccc32)c1O	> 100 µM (inactive)	6.81 µM (inactive)	26.8 µM (inactive)	4.6 µM (inactive)	17.4 µM (inactive)	–	8.18 µM (inactive)	6.3 µM (inactive)	4.05 µM (inactive)	–	31.8 µM (inactive)	> 100 µM (inactive)	5.46 µM (inactive)	4.72 µM (inactive)	2.94 µM (inactive)	35.8 µM (inactive)	6.67 µM (inactive)	> 100 µM (inactive)	–	5.81 µM (inactive)
CCCCCCc1cc2cc(C(=O)Nc3cccc(F)c3)c(=N)oc2cc1O	2.04 µM (inactive)	2.21 µM (inactive)	2.99 µM (inactive)	3.15 µM (inactive)	–	1.42 µM (inactive)	2.73 µM (inactive)	–	2.4 µM (inactive)	1.4 µM (inactive)	2.9 µM (inactive)	3.27 µM (inactive)	–	2.17 µM (inactive)	2.63 µM (inactive)	2.71 µM (inactive)	1.94 µM (inactive)	3.56 µM (inactive)	2.35 µM (inactive)	2.36 µM (inactive)
O=C(Nc1ccc(Cl)cc1)NS(=O)(=O)c1ccc2c(c1)CCC2 [SULOFENUR]	16.4 µM (inactive)	0.209 µM (active)	50.7 µM (inactive)	37.9 µM (inactive)	–	12.3 µM (inactive)	25.1 µM (inactive)	37.9 µM (inactive)	17.6 µM (inactive)	26.9 µM (inactive)	42.9 µM (inactive)	32.7 µM (inactive)	39.2 µM (inactive)	> 57 µM (inactive)	32.6 µM (inactive)	36.1 µM (inactive)	23.9 µM (inactive)	24 µM (inactive)	–	2.4 µM (inactive)
C=C1CC23CCC4C(C)(C(=O)O)CCCC4(C)C2CCC1C3 (configuration not stated)	38 µM (inactive)	44.3 µM (inactive)	36.8 µM (inactive)	56 µM (inactive)	25.9 µM (inactive)	24.4 µM (inactive)	28.8 µM (inactive)	55.7 µM (inactive)	62.1 µM (inactive)	–	22.3 µM (inactive)	35.5 µM (inactive)	38 µM (inactive)	33.3 µM (inactive)	26.3 µM (inactive)	41.6 µM (inactive)	52.4 µM (inactive)	65.3 µM (inactive)	–	–
CC(=O)Oc1ccc2cc(Oc3ccc(Cl)cc3)c(=O)oc2c1	34.1 µM (inactive)	79.1 µM (inactive)	24.1 µM (inactive)	49.9 µM (inactive)	44.3 µM (inactive)	30.1 µM (inactive)	30.6 µM (inactive)	41.5 µM (inactive)	–	20.4 µM (inactive)	53 µM (inactive)	21.6 µM (inactive)	29.6 µM (inactive)	64.7 µM (inactive)	25.9 µM (inactive)	37.8 µM (inactive)	–	53.6 µM (inactive)	–	49.4 µM (inactive)
Cn1cc(NC(=O)c2cc(NC(=O)CNC(=N)N)cn2C)cc1C(=O)NCCC(=N)N [NETROPSIN CHLORIDE]	> 100 µM (inactive)	> 100 µM (inactive)	> 100 µM (inactive)	> 100 µM (inactive)	–	> 100 µM (inactive)	> 100 µM (inactive)	> 100 µM (inactive)	> 100 µM (inactive)	> 100 µM (inactive)	> 100 µM (inactive)	> 100 µM (inactive)	> 100 µM (inactive)	> 100 µM (inactive)	> 100 µM (inactive)	> 100 µM (inactive)	> 100 µM (inactive)	> 100 µM (inactive)	> 100 µM (inactive)	> 100 µM (inactive)
Cc1cc(Cc2cc(C)c(NC(=O)C(=O)C3CCC4=C(SC5C=CC=CC5N4)C3=O)c(C(C)C)c2)cc(C(C)C)c1NC(=O)C(=O)C1CCC2=C(SC3C=CC=CC3N2)C1=O (configuration not stated)	29.2 µM (inactive)	–	> 100 µM (inactive)	> 100 µM (inactive)	95.9 µM (inactive)	34 µM (inactive)	41.3 µM (inactive)	31 µM (inactive)	> 100 µM (inactive)	35.8 µM (inactive)	53.6 µM (inactive)	64 µM (inactive)	84.1 µM (inactive)	60.8 µM (inactive)	38.4 µM (inactive)	43.3 µM (inactive)	53.1 µM (inactive)	> 100 µM (inactive)	35.5 µM (inactive)	40.6 µM (inactive)
CCOC(=O)/C(C(=O)Nc1cccc(Cl)c1)=C(/N)N1CCOCC1	> 100 µM (inactive)	> 100 µM (inactive)	> 100 µM (inactive)	> 100 µM (inactive)	> 100 µM (inactive)	> 100 µM (inactive)	–	> 100 µM (inactive)	> 100 µM (inactive)	–	> 100 µM (inactive)	> 100 µM (inactive)	> 100 µM (inactive)	–	> 100 µM (inactive)	> 100 µM (inactive)	> 100 µM (inactive)	> 100 µM (inactive)	> 100 µM (inactive)	> 100 µM (inactive)
